Earlier results on one compound are cited in PubChem BioAssay AID1259409 (Chemical Carcinogenesis Research Information System (CCRIS), 2018).

The data set concerns rodent chemically induced tumor inhibition, incidence and multiplicity. Put plainly: CCRIS tumor inhibitor studies. The conditions noted are these: Route [Inhibitor]: ORAL, Species: HAMSTER.

On to `CC1=C(/C=C/C(C)=C/C=C/C(C)=C/C(=O)Nc2ccc(O)cc2)C(C)(C)CCC1`, for which the “tumour outcome (control, treated, inhibition, significance)” value is, setting by setting: (Carcinogen: N-NITROSOBIS(2-OXOPROPLYL)AMINE [60599-38-4], DL-ETHIONINE [67-21-0], L-METHIONINE [63-68-3], Carcinogen: N-NITROSOBIS(2-OXOPROPLYL)AMINE [60599-38-4], DL-ETHIONINE [67-21-0], L-METHIONINE [63-68-3], Dose [Inhibitor]: 0, 0.01% IN DIET FOR 55 D BEGINNING ON DAY 50, 1 WK POST LAST CARCINOGEN DOSE (STUDY DURATION: 105 D), Target Tissue: Type of Lesion: PANCREATIC DUCT, CARCINOMA, Dose [Carcinogen]: 50 MG/KG BOP ONCE ON DAY 0, THEN 20 MG/KG TWICE ON DAYS 18 AND 32, 500 MG/KG DL-ETHIONINE 1X/D FOR 4 D BEGINNING ON DAY, Dose [Carcinogen]: 50 MG/KG BOP ONCE ON DAY 0, THEN 20 MG/KG TWICE ON DAYS 18 AND 32, 500 MG/KG DL-ETHIONINE 1X/D FOR 4 D BEGINNING ON DAY, Promoter: CHOLINE-DEFICIENT DIET) 17/17 (100%), 17/17 (100%), 0%, not significant; (Carcinogen: N-NITROSOBIS(2-OXOPROPLYL)AMINE [60599-38-4], DL-ETHIONINE [67-21-0], L-METHIONINE [63-68-3], Carcinogen: N-NITROSOBIS(2-OXOPROPLYL)AMINE [60599-38-4], DL-ETHIONINE [67-21-0], L-METHIONINE [63-68-3], Dose [Inhibitor]: 0, 0.04% IN DIET FOR 55 D BEGINNING ON DAY 50, 1 WK POST LAST CARCINOGEN DOSE (STUDY DURATION: 105 D), Target Tissue: Type of Lesion: LIVER: INTRAHEPATIC CHOLANGIOCARCINOMA, Dose [Carcinogen]: 50 MG/KG BOP ONCE ON DAY 0, THEN 20 MG/KG TWICE ON DAYS 18 AND 32, 500 MG/KG DL-ETHIONINE 1X/D FOR 4 D BEGINNING ON DAY, Dose [Carcinogen]: 50 MG/KG BOP ONCE ON DAY 0, THEN 20 MG/KG TWICE ON DAYS 18 AND 32, 500 MG/KG DL-ETHIONINE 1X/D FOR 4 D BEGINNING ON DAY, Promoter: CHOLINE-DEFICIENT DIET) 7/17 (41%), 14/15 (93%), -127%, p<0.01; (Carcinogen: N-NITROSOBIS(2-OXOPROPLYL)AMINE [60599-38-4], DL-ETHIONINE [67-21-0], L-METHIONINE [63-68-3], Carcinogen: N-NITROSOBIS(2-OXOPROPLYL)AMINE [60599-38-4], DL-ETHIONINE [67-21-0], L-METHIONINE [63-68-3], Dose [Inhibitor]: 0, 0.04% IN DIET FOR 55 D BEGINNING ON DAY 50, 1 WK POST LAST CARCINOGEN DOSE (STUDY DURATION: 105 D), Target Tissue: Type of Lesion: PANCREATIC DUCT, CARCINOMA, Dose [Carcinogen]: 50 MG/KG BOP ONCE ON DAY 0, THEN 20 MG/KG TWICE ON DAYS 18 AND 32, 500 MG/KG DL-ETHIONINE 1X/D FOR 4 D BEGINNING ON DAY, Dose [Carcinogen]: 50 MG/KG BOP ONCE ON DAY 0, THEN 20 MG/KG TWICE ON DAYS 18 AND 32, 500 MG/KG DL-ETHIONINE 1X/D FOR 4 D BEGINNING ON DAY, Promoter: CHOLINE-DEFICIENT DIET) 17/17 (100%), 15/15 (100%), 0%, not significant; (Carcinogen: N-NITROSOBIS(2-OXYPROPYL)AMINE, 60599-38-4, Dose [Inhibitor]: 0.05, 0.1 OR 0.2 MILLIMOLAR/KG DIET FOR 32 WK STARTING 1 WK AFTER THE CARCINOGEN DOSE (STUDY DURATION: 33 WK), Strain/Sex: SYRIAN/FEMALE, Target Tissue: Type of Lesion: COMMON DUCT: ADENOMA, Dose [Carcinogen]: 40 MG/KG ONCE, Promoter: NONE USED) 4/10 (40%), 26/30 (87%), -118%, p<0.025; (Carcinogen: N-NITROSOBIS(2-OXYPROPYL)AMINE, 60599-38-4, Dose [Inhibitor]: 0.05, 0.1 OR 0.2 MILLIMOLAR/KG DIET FOR 32 WK STARTING 1 WK AFTER THE CARCINOGEN DOSE (STUDY DURATION: 33 WK), Strain/Sex: SYRIAN/FEMALE, Target Tissue: Type of Lesion: GALL BLADDER: ADENOMA, Dose [Carcinogen]: 40 MG/KG ONCE, Promoter: NONE USED) 6/10 (60%), 29/30 (97%), -62%, not significant; (Carcinogen: N-NITROSOBIS(2-OXYPROPYL)AMINE, 60599-38-4, Dose [Inhibitor]: 0.05, 0.1 OR 0.2 MILLIMOLAR/KG DIET FOR 32 WK STARTING 1 WK AFTER THE CARCINOGEN DOSE (STUDY DURATION: 33 WK), Strain/Sex: SYRIAN/FEMALE, Target Tissue: Type of Lesion: LIVER: ADENOMA, Dose [Carcinogen]: 40 MG/KG ONCE, Promoter: NONE USED) 6/10 (60%), 10/30 (33%), 45%, not significant. The “tumour outcome (control, treated, inhibition, significance)” value is, setting by setting: (Carcinogen: N-NITROSOBIS(2-OXYPROPYL)AMINE, 60599-38-4, Dose [Inhibitor]: 0.05, 0.1 OR 0.2 MILLIMOLAR/KG DIET FOR 32 WK STARTING 1 WK AFTER THE CARCINOGEN DOSE (STUDY DURATION: 33 WK), Strain/Sex: SYRIAN/FEMALE, Target Tissue: Type of Lesion: LUNG: ADENOMA, Dose [Carcinogen]: 40 MG/KG, ONCE, ONE WK PRIOR TO START OF AGENT TREATMENT, Promoter: NONE USED) 3/10 (30%), 18/30 (60%), -100%, not significant; (Carcinogen: N-NITROSOBIS(2-OXYPROPYL)AMINE, 60599-38-4, Dose [Inhibitor]: 0.05, 0.1 OR 0.2 MILLIMOLAR/KG DIET FOR 32 WK STARTING 1 WK AFTER THE CARCINOGEN DOSE (STUDY DURATION: 33 WK), Strain/Sex: SYRIAN/FEMALE, Target Tissue: Type of Lesion: PANCREAS: ADENOMA, Dose [Carcinogen]: 40 MG/KG ONCE, Promoter: NONE USED) 10/10 (100%), 30/30 (100%), 0%, not significant; (Carcinogen: N-NITROSOBIS(2-OXYPROPYL)AMINE, 60599-38-4, Dose [Inhibitor]: 0.05, 0.1 OR 0.2 MILLIMOLAR/KG DIET FOR 32 WK STARTING 1 WK AFTER THE CARCINOGEN DOSE (STUDY DURATION: 33 WK), Strain/Sex: SYRIAN/FEMALE, Target Tissue: Type of Lesion: PANCREAS: CARCINOMA, Dose [Carcinogen]: 40 MG/KG ONCE, Promoter: NONE USED) 4/10 (40%), 16/30 (53%), -33%, not significant; (Carcinogen: N-NITROSOBIS(2-OXYPROPYL)AMINE, 60599-38-4, Dose [Inhibitor]: 0.05, 0.1 OR 0.2 MILLIMOLAR/KG DIET FOR 32 WK STARTING 1 WK AFTER THE CARCINOGEN DOSE (STUDY DURATION: 33 WK), Strain/Sex: SYRIAN/MALE, Target Tissue: Type of Lesion: COMMON DUCT: ADENOMA, Dose [Carcinogen]: 40 MG/KG ONCE, Promoter: NONE USED) 4/12 (33%), 20/21 (95%), -188%, not significant; (Carcinogen: N-NITROSOBIS(2-OXYPROPYL)AMINE, 60599-38-4, Dose [Inhibitor]: 0.05, 0.1 OR 0.2 MILLIMOLAR/KG DIET FOR 32 WK STARTING 1 WK AFTER THE CARCINOGEN DOSE (STUDY DURATION: 33 WK), Strain/Sex: SYRIAN/MALE, Target Tissue: Type of Lesion: GALL BLADDER: ADENOMA, Dose [Carcinogen]: 40 MG/KG ONCE, Promoter: NONE USED) 3/12 (25%), 20/21 (95%), -280%, not significant; (Carcinogen: N-NITROSOBIS(2-OXYPROPYL)AMINE, 60599-38-4, Dose [Inhibitor]: 0.05, 0.1 OR 0.2 MILLIMOLAR/KG DIET FOR 32 WK STARTING 1 WK AFTER THE CARCINOGEN DOSE (STUDY DURATION: 33 WK), Strain/Sex: SYRIAN/MALE, Target Tissue: Type of Lesion: LIVER: ADENOMA, Dose [Carcinogen]: 40 MG/KG ONCE, Promoter: NONE USED) 6/12 (50%), 7/21 (33%), 34%, not significant.
